Source: patent publication US20260315462A1, “METHODS OF TREATING RELAPSING MULTIPLE SCLEROSIS USING AN INHIBITOR OF BRUTON'S TYROSINE KINASE” (Genentech, Inc., priority 2023, published 2026)
In brackets after ≈: the same amount, converted by molar mass. Read-outs that look alike come from different tables or passages of the source.

Assays:
[1] = Fenebrutinib concentration in CSF and plasma after 12 weeks of continuous administration (exploratory endpoint); assay type: in vivo, human
Text: Exploratory Endpoints: Exploratory endpoints included the total number of new T1-hypointense lesions on MRI at weeks 4, 8, and 12; the fenebrutinib concentration in CSF collected at baseline and at or after Week 12; and plasma pharmacokinetics.
Results: Exploratory Endpoint-Evaluation of CSF: Cerebrospinal samples (CSF) were taken from 11 patients following 12 weeks of continuous fenebrutinib administration. A blood plasma sample was taken at the same time for 4 of the 11 patients. The concentration of fenebrutinib in CSF at 12 Weeks was evaluated, and presented in FIG. 5 in comparison to the IC50 of fenebrutinib (active inhibitory threshold) and the IC90 of fenebrutinib (maximal inhibitory threshold) as evaluated in different in vitro assays. From the figure, (a) the mean fenebrutinib CSF concentration is following 12 weeks of continuous fenebrutinib administration; (1) the data for CD63 and CD69 assays was previously presented as Weber M S, et al. at AAN 2021 Virtual Annual Meeting, April 17-22. (P15.091); and (2) the data for the phospho-BTK assay was previously presented in Keaney J, et al. J Neuroimmune Pharmacol 2019; 14:448-461. Analysis of fenebrutinib concentration in CSF, plasma, and the ratio for the four patients for which a plasma sample was taken is provided in Table 11.
CD63 is a myeloid lineage cell activation marker; CD69 is a B-cell activation marker; the phospho-BTK assay evaluates target engagement through inhibition of anti-IgM induced BTK Y223 autophosphorylation in human whole blood. Procedures for performing these three assays may be found in Crawford J J, et al. J Med Chem 2018; 6:2227-2245. Fenebrutinib has a dual mechanism of action, inhibiting both B-cell and myeloid lineage cell activation.

[2] = Safety: adverse events in Phase II RMS study; assay type: in vivo, human; conditions: for Patients with ≥1 AE, %: 200 mg BID oral, 12 weeks, placebo 33.3
Procedure: (§1) Study Design: This clinical trial comprised a double-blind treatment (DBT) phase, where participants were randomized in a 2:1 ratio to receive either 200 mg BID oral fenebrutinib or non-active placebo, administered for 12 weeks. Participants were directed to self-administer two 100 mg tablets in the morning and two 100 mg tablets in the evening by mouth, for a total dose of 400 mg of fenebrutinib (or placebo) every day.
(§2) A total of 109 adults aged 18-55 with RMS were enrolled in the study: 73 in the fenebrutinib arm, and 36 in the placebo arm. […] Accordingly, the analysis of outcome for the double blind phase of the study included 70 patients in the fenebrutinib arm, and 36 patients in the placebo arm.
Results—Safety Summary: A summary of adverse events (AEs) for patients treated with fenebrutinib, and with placebo, is provided in Table 12.

[3] = system: CD69 expression on B cells; conditions: in vitro human whole blood assay; previously presented Weber M S, et al. AAN 2021; cited from earlier work
[4] = system: new or enlarging T2-weighted lesions on brain MRI; experiment: New or enlarging T2-weighted lesions on brain MRI, Phase II RMS study (secondary endpoint); assay type: in vivo, human
Text: This Phase II study was undertaken to evaluate the effect of fenebrutinib on brain magnetic resonance imaging (MRI) in participants with RMS. Participants were randomized to receive either fenebrutinib or placebo. In addition to MRI evaluations, participants were also monitored for other clinical outcomes of disease, including disability progression and MS relapse, as described more fully below.
as §1, §2
MRI Measurements: The primary efficacy endpoint for this study was the total number of new gadolinium-enhancing T1 (T1Gd+) lesions on brain MRI measured at Weeks 4, 8, and 12 of administration. The secondary efficacy outcomes were (1) the total number of new or enlarging T2-weighted lesions on brain MRI measured at Weeks 4, 8, and 12, and (2) the proportion of participants free from any new Gd-enhancing T1 lesions and new or enlarging T2-weighted lesions observed on brain MRI at Weeks 4, 8, and 12. Radiologic evaluation for the primary efficacy parameter was performed using a standardized MRI protocol at screening, and at Weeks 4, 8, and 12 for each participant.
Results: Secondary Endpoint-Total Number of New or Enlarging T2-Weighted Lesions at Weeks 4, 8, and 12 combined: This secondary endpoint was met, and a summary of this secondary endpoint analysis is provided in Table 5. FIG. 3 provides bar graphs illustrating some of the data in these tables and providing additional analyses. In this figure, the large arrows indicate the relative reduction (95% confidence interval) of lesions. The proportion of patients with new/enlarging T2-weighted lesions is the number of participants that have a new lesion at that specific visit alone divided by the number of participants with a scan at that specific visit alone at the indicated week. There was a 95% reduction and only 3.2% of patients with new/enlarging lesions at Week 12.

[5] = system: CD63 expression on myeloid lineage cells (basophils); conditions: in vitro human whole blood assay; previously presented Weber M S, et al. AAN 2021; cited from earlier work
[6] = system: inflammatory cytokine production from myeloid cells (including TNF-α); conditions: in vitro cell-based experiments; cited from earlier work
[7] = most common AEs, n = 73, placebo 0
[8] = most common AEs, n = 73, placebo 2.8

SMILES: C[C@H]1CN(C2COC2)CCN1c1ccc(Nc2cc(-c3ccnc(N4CCn5c(cc6c5CC(C)(C)C6)C4=O)c3CO)cn(C)c2=O)nc1 [Fenebrutinib, (S)-2-(3′-(hydroxymethyl)-1-methyl-5-((5-(2-methyl-4-(oxetan-3-yl)piperazin-1-yl)pyridin-2-yl)amino)-6-oxo-1,6-dihydro-[3,4′-bipyridin]-2′-yl)-7,7-dimethyl-2,3,4,6,7,8-hexahydro-1H-cyclopenta[4,5]pyrrolo[1,2-a]pyrazin-1-one]
- presence in CSF relative to in vitro activity ([1]; after 12 weeks of continuous administration): present in the CSF at levels sufficient to reduce activation of B cells and microglia progenitor cells in vitro
- concentration at 2016 h ([1]; human, csf, po, 200 mg, 11 patients, following 12 weeks of continuous administration, read-out: mean fenebrutinib CSF concentration): 0.0431 µg/mL
- concentration at 2016 h ([1]; human, csf, po, 200 mg, n = 4 patients, after 12 weeks of continuous administration, 200 mg BID oral, read-out: CSF concentration, Median (min, max)): 0.0502 µg/mL
- Kp at 2016 h ([1]; human, csf, po, 200 mg, n = 4 patients, after 12 weeks of continuous administration, total plasma, read-out: CSF:plasma ratio, Median (min, max)): 0.061
- concentration at 2016 h ([1]; human, plasma, po, 200 mg, n = 4 patients, after 12 weeks of continuous administration, 200 mg BID oral, read-out: Total plasma concentration, Median (min, max)): 0.691 µg/mL
- Patients with ≥1 AE, % ([2]; n = 73): 38.4%
- Patients with ≥1 AE, % ([2]; n = 73, listed as FEN): 38%
- withdrawal: abnormal hepatic transaminase levels ([2]; discontinuation required by protocol): 4
- AE grade ([2]; double-blind treatment phase): All AEs were Grade 1 or 2, except for two Grade 3 asymptomatic liver transaminase level elevations
- AEs leading to withdrawal from the study ([2]; double-blind treatment phase): four AEs leading to withdrawal from the study
- serious AEs or deaths ([2]; double-blind treatment phase): No SAEs were reported
- serious AEs or deaths ([2]; double-blind treatment phase, listed as FEN): No serious AEs or deaths were reported
- rate of infections ([2]; fenebrutinib vs placebo arms): balanced between the fenebrutinib and placebo arms
- hepatic transaminase level elevations, character ([2]; fenebrutinib-treated patients): reversible and asymptomatic
- withdrawal: hypersensitivity ([2]; in vivo): 1
- withdrawal: upper abdominal pain ([2]; in vivo): 1
- withdrawal: upper abdominal pain; nausea and headache ([2]; in vivo): 1
- Abnormal hepatic enzyme levels, % [2, 7]: 5.5%
- Nasopharyngitis, % [2, 7]: 2.7%
- Upper abdominal pain, % [2, 7]: 2.7%
- Headache, % [2, 8]: 4.1%
- Nausea, % [2, 8]: 2.7%
- Pharyngitis, % [2, 8]: 2.7%
- Urinary tract infection, % ([2]; most common AEs, n = 73, placebo 5.6): 5.5%
- Patients with ≥1 AE leading to dose interruption, n (%) ([2]; n = 73): 0
- Patients with ≥1 AE with fatal outcome, n (%) ([2]; n = 73): 0
- Patients with ≥1 SAE, n (%) ([2]; n = 73): 0
- Patients with ≥1 Grade 3 AE, % ([2]; n = 73, placebo 0): 2.7%
- Patients withdrawn from study due to an AE, % ([2]; n = 73, placebo 0): 9.6%
- Patients with ≥1 Related AE, % ([2]; n = 73, placebo 5.6): 13.7%
- Total no. of AEs ([2]; n = 73, placebo 19): 40
- IC90, CD69 (B-cell activation marker) [3]: 0.0432 mg/L (≈ 0.065 µM)
- Number of New or Enlarging T2-Weighted Lesions, Mean (SD), Week 4 ([4]; 200 mg BID oral, Week 4, n = 70, min-max 0-21, placebo 1.222 (2.218)): 1.043 (2.990)
- Number of New or Enlarging T2-Weighted Lesions, Mean (SD), Week 8 ([4]; 200 mg BID oral, Week 8, n = 67, min-max 0-4, placebo 0.824 (1.359)): 0.104 (0.526)
- Number of New or Enlarging T2-Weighted Lesions, Mean (SD), Week 12 ([4]; 200 mg BID oral, Week 12, n = 63, min-max 0-1, placebo 0.545 (1.121)): 0.032 (0.177)
- Total Number of New or Enlarging T2-Weighted Lesions ([4]; 200 mg BID oral, Weeks 4, 8, and 12 combined, N = 70, 201 scans, placebo 90): 82
- New or Enlarging T2-Weighted Lesion rate, adjusted ([4]; 200 mg BID oral, Weeks 4, 8, and 12 combined, placebo 0.634): 0.168
- New or Enlarging T2-Weighted Lesion rate, unadjusted ([4]; 200 mg BID oral, Weeks 4, 8, and 12 combined, placebo 0.874): 0.408
- proportion of patients with new/enlarging T2-weighted lesions, Week 12 ([4]; Week 12, participants with a new lesion at that visit divided by participants with a scan at that visit): 3.2%
- Relative Reduction of New or Enlarging T2-Weighted Lesions, Week 4 ([4]; vs placebo, Week 4, 95% CI −13%, 77%): 49%
- Relative Reduction of New or Enlarging T2-Weighted Lesions, Week 8 ([4]; vs placebo, Week 8, 95% CI 72%, 96%): 90%
- Relative Reduction of New or Enlarging T2-Weighted Lesions, Week 12 ([4]; vs placebo, Week 12, 95% CI 77%, 99%): 95%
- Rate Ratio, adjusted (new or enlarging T2-weighted lesions) ([4]; vs placebo, Weeks 4, 8, and 12 combined, 95% CI (0.128, 0.550)): 0.265
- Relative Reduction in new or enlarging T2-weighted lesions ([4]; vs placebo, Weeks 4, 8, and 12 combined, 95% CI (45.0%, 87.2%), p-value 0.0004): 73.5%
- Relative Reduction of New or Enlarging T2-Weighted Lesions, Weeks 8 and 12 ([4]; vs placebo, Weeks 8 and 12): 93%
- IC90, CD63 (myeloid lineage cell activation marker) [5]: 0.0412 mg/L (≈ 0.062 µM)
- inflammatory cytokine production from myeloid cells [6]: reduction of inflammatory cytokine production from myeloid cells
